Measured values: patent US20060223819A1, “Quinoline Derivatives as NK-3 Antagonists” (GlaxoSmithKline S.P.A. & Laboratoire, priority 2000, published 2006)

melting point [°C]	Structure (SMILES)
156 to 158	CC(C)[C@H](NC(=O)c1c(CN2CCN(CC(C(=O)O)c3ccccc3)CC2)c(-c2ccccc2)nc2ccccc12)c1ccccc1 (stereo partly drawn) [Example 16, 3-{4-[4-((S)-2-Methyl-1-phenyl-propylcarbamoyl)-2-phenyl-quinolin-3-ylmethyl]-piperazin-1-yl}-2-phenyl-propionic acid]
163	C[C@H](NC(=O)c1c(CN2CCNCC2)c(-c2ccccc2)nc2ccccc12)c1ccc(O)cc1 [Example 6, 2-Phenyl-3-piperazin-1-ylmethyl-quinoline-4-carboxylic acid [(S)-1-(4-hydroxy-phenyl)-ethyl]-amide]
137 to 138	CC(CN1CCN(Cc2c(-c3ccccc3)nc3ccccc3c2C(=O)N[C@@H](C)c2ccccc2)CC1)C(=O)O (stereo partly drawn) [Example 14, 2-Methyl-3-{4-[2-phenyl-4-((S)-1-phenyl-ethylcarbamoyl)-quinolin-3-ylmethyl]-piperazin-1-yl}-propionic acid]
212	C[C@H](NC(=O)c1c(CN2CCNCC2=O)c(-c2ccccc2)nc2ccccc12)C1CCCCC1 [Example 30, 3-(2-Oxopiperazin-1-ylmethyl)-2-phenylquinoline-4-carboxylic acid ((S)-1-cyclohexylethyl)-amide]
